Measured values taken from ChEMBL document CHEMBL1143871, “Small P-gp modulating molecules: SAR studies on tetrahydroisoquinoline derivatives” (Bioorg Med Chem, 2008).

Legend:
[1] = target: T1, ATP-dependent translocase ABCB1 (Homo sapiens, UniProt P08183); test: Inhibition of human Pgp mediated [3H]vinblastine transport in human Caco-2 cells; assay type: cell-based
[2] = Apparent permeability from basolateral to apical side of human Caco-2 cell membrane; assay type: ADME, cell-based
[3] = Apparent permeability from apical to basolateral side of human Caco-2 cell membrane; assay type: ADME, cell-based
[4] = Ratio of apparent permeability from basolateral to apical over apical to basolateral side of human Caco-2 cell membrane
[5] = target: T1, ATP-dependent translocase ABCB1; test: Activation of human Pgp ATPase in human Caco-2 cells at 100 uM; assay type: cell-based; conditions: caco-2, 100 µM
[6] = test system: MCF7; test: Cytotoxic activity against adriamycin resistant human MCF7 cells assessed as LDH release at 100 uM after 24 hrs; assay type: functional
[7] = target: T1, ATP-dependent translocase ABCB1; test: Inhibition of human Pgp in adriamycin resistant MCF7 cells assessed as fold increase in accumulation of doxorubicin at 20 uM relative to control; assay type: cell-based; conditions: mcf7, 20 µM
[8] = test system: MCF7; test: Antiproliferative activity against adriamycin resistant human MCF7 cells assessed by MTT assay at 100 uM after 48 hrs

T1 sequence (P08183 whole entry): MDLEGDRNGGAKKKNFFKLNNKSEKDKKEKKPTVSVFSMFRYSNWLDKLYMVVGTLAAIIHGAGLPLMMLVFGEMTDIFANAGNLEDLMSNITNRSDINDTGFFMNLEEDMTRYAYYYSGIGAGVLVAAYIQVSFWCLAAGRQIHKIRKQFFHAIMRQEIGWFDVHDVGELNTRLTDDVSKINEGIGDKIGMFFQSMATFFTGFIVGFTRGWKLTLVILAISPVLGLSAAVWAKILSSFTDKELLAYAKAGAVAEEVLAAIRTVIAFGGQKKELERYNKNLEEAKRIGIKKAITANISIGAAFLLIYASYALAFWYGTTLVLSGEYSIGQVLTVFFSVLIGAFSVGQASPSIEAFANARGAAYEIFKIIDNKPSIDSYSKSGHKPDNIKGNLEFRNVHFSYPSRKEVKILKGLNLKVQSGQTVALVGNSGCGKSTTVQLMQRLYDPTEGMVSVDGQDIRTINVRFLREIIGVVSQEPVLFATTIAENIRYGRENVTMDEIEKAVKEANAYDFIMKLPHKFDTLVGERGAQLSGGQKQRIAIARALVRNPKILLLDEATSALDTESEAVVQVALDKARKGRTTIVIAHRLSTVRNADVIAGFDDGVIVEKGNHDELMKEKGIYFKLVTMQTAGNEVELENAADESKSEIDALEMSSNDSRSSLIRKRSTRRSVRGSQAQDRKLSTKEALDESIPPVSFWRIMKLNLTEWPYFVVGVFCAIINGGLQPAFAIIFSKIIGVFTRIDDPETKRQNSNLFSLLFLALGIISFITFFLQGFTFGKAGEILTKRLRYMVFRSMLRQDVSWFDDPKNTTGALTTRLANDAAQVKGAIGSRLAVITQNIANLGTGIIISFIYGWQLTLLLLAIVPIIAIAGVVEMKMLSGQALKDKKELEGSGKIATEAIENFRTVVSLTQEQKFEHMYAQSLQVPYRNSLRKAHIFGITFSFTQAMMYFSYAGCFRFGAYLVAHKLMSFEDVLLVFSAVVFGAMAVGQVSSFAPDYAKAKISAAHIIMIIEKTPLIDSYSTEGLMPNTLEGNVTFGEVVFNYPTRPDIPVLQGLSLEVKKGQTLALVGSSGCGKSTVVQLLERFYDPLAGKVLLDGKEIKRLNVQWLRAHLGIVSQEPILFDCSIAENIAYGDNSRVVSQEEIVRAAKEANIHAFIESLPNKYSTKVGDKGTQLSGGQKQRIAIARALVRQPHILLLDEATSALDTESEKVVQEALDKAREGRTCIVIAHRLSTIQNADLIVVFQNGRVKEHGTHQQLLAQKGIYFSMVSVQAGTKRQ

Compound	EC50 [1] [µM]	Papp B→A [2] [nm/s]	Papp A→B [3] [nm/s]	efflux ratio [4]	Activity [5] [%]	Activity [6] [%]	Activity [7]	Activity [8] [%]
COc1cc2c(cc1OC)CN(CCC=C1CCCCC1)CC2	15.2	2400	774	3.1				
COc1cc2c(cc1OC)CN(CCCC1=CCCc3c(OC)cccc31)CC2	15	1140	160	7.1	30			
COc1cccc2c1CCCC2CCCN1CCN(C2CCCCC2)CC1 (stereo not drawn)	0.55	4360	2500	1.7				
COc1ccc2c(c1)CCC=C2CCCN1CCc2cc(OC)c(OC)cc2C1	83.7	1510	407	3.7				
COc1cc2c(cc1OC)CN(CCCC1CCCc3cc(OC)c(OC)cc31)CC2 (stereo not drawn)	17.9	4400	868	5.1	62			
COc1ccc2c(c1)C(CCCN1CCc3cc(OC)c(OC)cc3C1)=CCC2	35.5	3320	610	5.4	20			
COc1cc2c(cc1OC)CN(CCCC1CCCc3c(OC)cccc31)CC2 (stereo not drawn)	6.35	1040	56	18	70	<20	4.8	<20
COc1ccc2c(c1)/C(=C/CCN1CCc3cc(OC)c(OC)cc3C1)CCC2	4.86	6570	1660	3.9		<20	4.1	<20
COc1ccc2c(c1)C(CCCN1CCc3cc(OC)c(OC)cc3C1)CCC2 (stereo not drawn)	10.2	1700	460	3.7	15			
COc1cccc2c1CCC/C2=C\CCN1CCCCC1	8.2	2560	584	4.4				
COc1cc2c(cc1OC)CN(CC/C=C1\CCCc3c(OC)cccc31)CC2	1.64	386	237	1.6		<20	5.7	25
COc1ccc2c(c1)CCCC2CCCN1CCc2cc(OC)c(OC)cc2C1 (stereo not drawn)	8.15	3510	828	4.2	27			
COc1cc2c(cc1OC)CN(CCCC1=CCCc3cc(OC)c(OC)cc31)CC2	31.6	1030	672	1.5	15			
